Experimental data reported in the supplement of paper PMC5579334.
± gives the standard deviation of the averaged measurements.

What was measured:
S1507-2 [1] = assay: drug sensitivity score (DSS, CellTox-Green cytotoxicity, 72 h) (DSS (dimensionless)); higher = more cytotoxic; extreme values may be limits of the assay
Outline: (§1)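 MPNST cell lines and primary human Schwann cells were incubated 72 h at 37 °C in 384-well plates holding five 10-fold compound dilutions. CellTox-Green was added before seeding at a final 1:1000 dilution and reported fluorescence from DNA released by disrupted cells. Signals were scaled to vehicle and positive-control wells, and cultures failing plate quality control were dropped. Drug sensitivity score and relative IC50 come from four-parameter logistic fits, with IC50 censored at the top concentration.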

STS26T [2] = assay: as above
Outline: as §1

HS-PSS [3] = assay: as above
Outline: as §1

[4] = test system: HSC2 (primary human Schwann cells); assay: as above
Outline: as §1

[5] = test system: HSC1 (primary human Schwann cells); assay: as above
Outline: as §1

ST8814 [6] = assay: as above
Outline: as §1

S462 [7] = assay: % inhibition of CellTiter-Glo viability at highest tested concentration (72 h), relative to DMSO and benzethonium chloride controls; higher = more inhibition
Outline: (§2)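 Viability was scored by CellTiter-Glo ATP luminescence, scaled from vehicle to positive-control wells, with duplicates averaged where present. The cells, MPNST lines and primary human Schwann cells at 750–1000 per well, sat 72 h at 37 °C, 5% CO2, in 384-well plates preprinted with each compound at five concentrations in 10-fold steps. Four-parameter logistic fits were run on the data. These fits give drug sensitivity score and relative IC50 censored at the top concentration, and percent inhibition is reported at the top concentration.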

S1507-2 [8] = assay: as above
Outline: as §2

YST-1 [9] = assay: as above
Outline: as §2

STS26T [10] = assay: as above
Outline: as §2

HS-PSS [11] = assay: as above
Outline: as §2

[12] = test system: HSC2 (primary human Schwann cells); assay: as above
Outline: as §2

[13] = test system: HSC1 (primary human Schwann cells); assay: as above
Outline: as §2

HS-Sch-2 [14] = assay: as above
Outline: as §2

ST8814 [15] = assay: as above
Outline: as §2

S462 [16] = assay: drug sensitivity score (DSS, CellTiter-Glo viability, 72 h) (DSS (dimensionless)); higher = more sensitive; extreme values may be limits of the assay
Outline: as §2

S1507-2 [17] = assay: as above
Outline: as §2

YST-1 [18] = assay: as above
Outline: as §2

STS26T [19] = assay: as above
Outline: as §2

HS-PSS [20] = assay: as above
Outline: as §2

[21] = test system: HSC2 (primary human Schwann cells); assay: as above
Outline: as §2

[22] = test system: HSC1 (primary human Schwann cells); assay: as above
Outline: as §2

HS-Sch-2 [23] = assay: as above
Outline: as §2

ST8814 [24] = assay: as above
Outline: as §2

Compound	drug sensitivity score (S1507-2 [1])	drug sensitivity score (STS26T [2])	drug sensitivity score (HS-PSS [3])	drug sensitivity score [4]	drug sensitivity score [5]	drug sensitivity score (ST8814 [6])	% inhibition (S462 [7])	% inhibition (S1507-2 [8])	% inhibition (YST-1 [9])	% inhibition (STS26T [10])	% inhibition (HS-PSS [11])	% inhibition [12]	% inhibition [13]	% inhibition (HS-Sch-2 [14])	% inhibition (ST8814 [15])	drug sensitivity score (S462 [16])	drug sensitivity score (S1507-2 [17])	drug sensitivity score (YST-1 [18])	drug sensitivity score (STS26T [19])	drug sensitivity score (HS-PSS [20])	drug sensitivity score [21]	drug sensitivity score [22]	drug sensitivity score (HS-Sch-2 [23])	drug sensitivity score (ST8814 [24])
CC(=O)O[C@@]12CO[C@@H]1C[C@H](O)[C@@]1(C)C(=O)[C@H](O)C3=C(C)[C@@H](OC(=O)[C@H](O)[C@@H](NC(=O)OC(C)(C)C)c4ccccc4)C[C@@](O)([C@@H](OC(=O)c4ccccc4)[C@H]21)C3(C)C [Docetaxel] (max concentration tested 1000 nM)	22 ± 1.6	36	0.9	24.4	17.3	27.1	96.9 ± 1.2%	83.195 ± 0.0062%	75.9%	99.9%	52.7%	74.4%	71.7%	96.2%	89.2%	36.7 ± 1.5	20.5 ± 0.58	29.1	35.5	15.2	22.3	21.9	30.8	24.8
O=[N+]([O-])c1ccc2c(c1)S(=O)(=O)C=C2 [Stattic] (max concentration tested 50000 nM)	5.93 ± 1.3	12	12.8	9.26	15.6	7.96	96.03 ± 0.43%	95.7 ± 1.3%	101%	95.6%	101%	98.3%	98.5%	100%	94.6%	11.3 ± 3.2	7.88 ± 2.4	17.4	13.7	18.7	13.9	16.8	18.6	14.9
CNC(=O)c1ccc(N2C(=S)N(c3ccc(C#N)c(C(F)(F)F)c3)C(=O)C23CCC3)cc1F [RD162] (max concentration tested 10000 nM)	2.37 ± 3.4	0	0	0	0	0	-0.791 ± 7.8%	10.7 ± 20%	7.83%	4.23%	-0.07%	8.13%	11.2%	9.66%	10%	0	1.24 ± 1.8	0	0	0	0	0.0127	0	0
CCc1c2c(nc3ccc(OC(=O)N4CCC(N5CCCCC5)CC4)cc13)-c1cc3c(c(=O)n1C2)COC(=O)[C@]3(O)CC [Irinotecan] (max concentration tested 10000 nM)	2.16 ± 1.5	3.22	3.15	5.29	6.2	8.16	98.1 ± 0.28%	75.8 ± 0.88%	71.2%	76.6%	58.3%	72.5%	63.6%	81.5%	93.9%	9.83 ± 0.34	6.91 ± 0.48	12	6.61	3.76	8.79	9.72	8.31	9.68
CO[C@H]1C[C@@H]2CC[C@@H](C)[C@@](O)(O2)C(=O)C(=O)N2CCCC[C@H]2C(=O)O[C@H]([C@H](C)C[C@@H]2CC[C@@H](OCCO)[C@H](OC)C2)CC(=O)[C@H](C)/C=C(\C)[C@@H](O)[C@@H](OC)C(=O)[C@H](C)C[C@H](C)/C=C/C=C/C=C/1C [Everolimus] (max concentration tested 100 nM)	6.46 ± 9.1	0	0	0	0	0	29.4 ± 7.3%	31 ± 1.7%	38.7%	45.4%	23.8%	48.5%	44.5%	18.4%	28.3%	8.44 ± 0.54	6.7 ± 1.1	4.45	15.6	3.56	15.8	17.2	3.17	7.31
Cn1cc(CNCC2CCN(c3ncc(C(=O)NO)cn3)CC2)c2ccccc21 [Quisinostat] (max concentration tested 1000 nM)	17.2 ± 0.8	9	6.33	7.35	7.77	13.8	103.4 ± 0.44%	102.2 ± 0.95%	99%	99.4%	93.3%	95.7%	95.9%	98.6%	102%	20.6 ± 0.34	20.8 ± 1.1	24.2	15.6	14.7	13.9	16	15.7	21
C/C(=C\c1csc(C)n1)[C@@H]1C[C@@H]2O[C@]2(C)CCC[C@H](C)[C@H](O)[C@@H](C)C(=O)C(C)(C)[C@@H](O)CC(=O)O1 [Patupilone] (max concentration tested 1000 nM)	21.9 ± 2.8	36.6	0	18.8	11.5	23.9	92.6 ± 0.95%	80.9 ± 0.77%	78.1%	96.8%	42.2%	73%	70%	91.9%	84.4%	37.7 ± 0.67	24.4 ± 1.7	31	36.5	17.9	25.2	29.1	32.7	28.4
